Patent US20160324795A1, “SILIBININ NANOPARTICLE AND A METHOD OF TREATING HEPATITIS C THEREOF” (Kaohsiung Medical University, priority 2014, published 2016)

Legend:
[1] = Serum silibinin concentration in SD rats by HPLC; type: in vivo, rat
Protocol: (§1) Sprague-Dawley (SD) male rats (6 week-old) purchased from BioLASCO Taiwan Co., Ltd. are used in trials (D) and (E). The SD rats are housed on a 12-hours light and 12-hours dark cycle in an animal room kept at a constant temperature of 25±1° C. and constant humidity of 55±5%. The SD rats are housed for several days before being administered the silibinin nanoparticle of the invention via gastrostomy in a dosage shown in TABLE 3.
After administration for 5, 15, 30, 60, 120, 360, 720, and 1440 minutes, 0.5 mL of blood samples are collected. The blood samples stand at room temperature for coagulation, followed by centrifugation to obtain serum. High-performance liquid chromatography (HPLC) is performed to analyze serum silibinin concentration.

[2] = tested on: Sprague-Dawley (SD) male rats; test: Safety test in SD rats, administration via gastrostomy for 15 days; conditions: rat, in vivo
Protocol: as §1
With reference to FIG. 6B, after being administered the silibinin nanoparticle of the invention for 15 days, all of the SD rats of groups D0 to D2 show a similar trend of increasing body weights.

[3] = Tissue silibinin concentration in SD rats 24 hours after administration by HPLC; type: in vivo, rat
Protocol: as §1
Furthermore, after being administered silibinin or silibinin nanoparticle for 24 hours, the SD rats of groups E1 and E2 are dissected and organs of heart, liver, spleen, lung, and kidney are collected. The collected organs are homogenized by a saline buffer, followed by extraction of silibinin with acetonitrile. The extracted silibinin is analyzed by HPLC.

hepatitis C virus = test: HCVcc infectivity in Huh-7 cells infected by hepatitis C virus (luminescence); type: cell-based
Protocol: Huh-7 cells are infected by hepatitis C virus for 3 hours. After infection, surplus hepatitis C virus are washed, followed by adding a medium with 10% fetal bovine serum (FBS) and the treatment shown in TABLE 5 for 72 hours. The resulting media is collected and the luminescence level is analyzed to evaluate HCVcc infectivity. Specifically, group F2 is treated with dimethyl sulfoxide (DMSO), group F3 is treated with interferon-α (IFN-α), a conventional medication for treating hepatitis C, group F4 is treated with PVP, group F5 is treated with the conventional silibinin dissolved in DMSO, group F6 is treated with the conventional silibinin dissolved in water, and group F7 is treated with the silibinin nanoparticle of the invention dissolved in water.

[4] = Solubility in solutions mimicking blood (pH 7.4) and stomach (pH 1.2); type: physicochemical; conditions: pH 7.4, after 120 minutes
Text: A solution with pH 7.4 mimics the environment of the blood and a solution with pH 1.2 mimics the environment of the stomach.
That is, compared with the conventional silibinin, the silibinin nanoparticle of the invention has improved blood solubility.

[5] = 100 mg/kg silibinin (nanoparticle 200 mg/kg with 100 mg of silibinin)

| Molecule | highest level of serum silibinin concentration [1, 5] [ng/mL] | time to highest level of serum silibinin concentration [1, 5] [min] | concentration at 1440 minutes ([1]; male, Sprague-Dawley, rat, serum, 100 mg/kg body weight/day, 1440 minutes after administration) [ng/mL] | safe dosage (as silibinin content) [2] [mg/kg body weight per day] | tissue distribution of silibinin (heart, liver, spleen, lung, kidney) [3] | HCVcc infectivity (hepatitis C virus; 72 hours, dissolved in DMSO) [log10 RLU] | dissolution in solution mimicking the environment of the blood [4] | HCVcc infectivity (hepatitis C virus; 72 hours treatment) [log10 RLU] |
| --- | --- | --- | --- | --- | --- | --- | --- | --- |
| COc1cc(C2Oc3cc(C4Oc5cc(O)cc(O)c5C(=O)C4O)ccc3OC2CO)ccc1O (centres unmarked) [silibinin, 3,5,7-trihydroxy-2-[3-(4-hydroxy-3-methoxyphenyl)-2-(hydroxymethyl)-2,3-dihydro-1,4-benzodioxin-6-yl]-2,3-dihydrochromen-4-one] | 170 | 15 | 0 | 5 | silibinin only exists in the lung | 4.9 | cannot dissolve | – |
| IFN-α | – | – | – | – | – | – | – | 4.2 |
